Read-outs that look alike come from different tables or passages of the source.
Experiments:
[1] = molecular target: FLNA pentapeptide of SEQ ID NO: 1 (Bn-VAKGL) (Homo sapiens, UniProt P21333); assay: FITC-NLX-based FLNA screening assay (inhibition of FITC-naloxone binding to Bn-VAKGL on streptavidin plates); settings: 10 nM FITC-NLX
mu opiate receptor (MOR) = assay: MOR agonist activity using [35S]GTPγS binding assay in striatal membranes; format: biochemical; settings: for MOR agonist activity ([35S]GTPγS binding), FLNA-Binding Compound as Agonist 1 μM + BFNA: 1 μM compound + 1 μM β-funaltrexamine
Method in brief: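 Striatal membranes (200 μg) were preincubated 5 min at 30 °C in HEPES pH 7.5 with 100 mM NaCl, 1 mM MgCl2 and 0.5 nM [35S]GTPγS, then 5 min more with 0.1–10 μM compound. Gαo was immunoprecipitated and bound radioactivity counted by scintillation.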

[2] = read-out: Percent Binding Inhibition, FLNA-binding compound 0.01 μM
[3] = read-out: Percent Binding Inhibition, FLNA-binding compound 0.1 μM
[4] = read-out: Percent Binding Inhibition, FLNA-binding compound 1 μM
[5] = Series B, 0.1 μM compound, relative to DAMGO
[6] = Series B, 0.1 μM compound, [35S]GTPγS binding to Gαo, striatal membranes
[7] = Series B, 1 μM compound + 1 μM β-FNA
[8] = Series B, 1 μM compound + β-FNA, relative to DAMGO + BFNA
[9] = Series B, 1 μM compound, relative to DAMGO
[10] = Series B, 1 μM compound, [35S]GTPγS binding to Gαo, striatal membranes
[11] = FLNA-binding compound 0.01 μM, read-out: Percent Binding Inhibition
[12] = FLNA-binding compound 0.1 μM, read-out: Percent Binding Inhibition
[13] = FLNA-binding compound 1 μM, read-out: Percent Binding Inhibition
[14] = 0.1 μM compound relative to DAMGO
[15] = 1 μM compound + BFNA relative to DAMGO + BFNA
[16] = 1 μM compound relative to DAMGO
[17] = Series C-1, 0.1 μM compound, relative to DAMGO
[18] = Series C-1, 0.1 μM compound, [35S]GTPγS binding to Gαo, striatal membranes
[19] = Series C-1, 1 μM compound + 1 μM β-FNA
[20] = Series C-1, 1 μM compound + β-FNA, relative to DAMGO + BFNA
[21] = Series C-1, 1 μM compound, relative to DAMGO
[22] = Series C-1, 1 μM compound, [35S]GTPγS binding to Gαo, striatal membranes

| Compound | inhibition at 0.01 µM [1, 2] | inhibition at 0.1 µM [1, 3] | inhibition at 1 µM [1, 4] | inhibition at 0.01 µM [1, 11] | inhibition at 0.1 µM [1, 12] | inhibition at 1 µM [1, 13] | MOR agonist activity ([35S]GTPγS binding), FLNA-Binding Compound as Agonist 0.1 μM (mu opiate receptor (MOR); 0.1 μM compound) | % DAMGO (0.1 μM) (mu opiate receptor (MOR); [14]) | MOR agonist activity ([35S]GTPγS binding), FLNA-Binding Compound as Agonist 1 μM (mu opiate receptor (MOR); 1 μM compound) | MOR agonist activity ([35S]GTPγS binding), FLNA-Binding Compound as Agonist 1 μM + BFNA (mu opiate receptor (MOR)) | % DAMGO + BFNA (mu opiate receptor (MOR); [15]) | % DAMGO (1 μM) (mu opiate receptor (MOR); [16]) | also measured |
| --- | --- | --- | --- | --- | --- | --- | --- | --- | --- | --- | --- | --- | --- |
| COc1c2c(cc3c1C(CC(=O)Cc1ccc(C#N)cc1)[N+](C)(C)CC3)OCO2 (stereo not drawn) [Compound B0012] | 39.4% | 46.9% | 51.7% | – | – | – | – | – | – | – | – | – | % DAMGO (0.1 μM) (mu opiate receptor (MOR); [5]): 97.8%; MOR agonist activity, percent [35S]GTPγS binding at the stated compound concentration (mu opiate receptor (MOR); [6]): 167.4%; MOR agonist activity, percent [35S]GTPγS binding at the stated compound concentration (mu opiate receptor (MOR); [7]): 145.1%; % DAMGO + BFNA (mu opiate receptor (MOR); [8]): 278.5%; % DAMGO (1 μM) (mu opiate receptor (MOR); [9]): 79.4%; MOR agonist activity, percent [35S]GTPγS binding at the stated compound concentration (mu opiate receptor (MOR); [10]): 212.0% |
| CC1CCC(C(C)C)C(OCC(O)CN2CCN(C)CC2)C1 (stereo not drawn) [Compound A0009] | – | – | – | 26.4% | 37.8% | 38.9% | 70.2% | 39.8% | 126.4% | 93.9% | 142.9% | 48.7% | – |
| COc1ccccc1S(=O)(=O)N1CCC2(CC1)OCCN2S(=O)(=O)c1ccccc1OC [Compound C0003] | 38.3% | 45.3% | 48.8% | – | – | – | – | – | – | – | – | – | % DAMGO (0.1 μM) (mu opiate receptor (MOR); [17]): 91.9%; Concentration of FLNA-Binding Compound as Agonist 0.1 μM (mu opiate receptor (MOR); [18]): 162.3%; Concentration of FLNA-Binding Compound as Agonist 1 μM + BFNA (mu opiate receptor (MOR); [19]): 107.7%; % DAMGO + BFNA (mu opiate receptor (MOR); [20]): 163.9%; % DAMGO (1 μM) (mu opiate receptor (MOR); [21]): 83.3%; Concentration of FLNA-Binding Compound as Agonist 1 μM (mu opiate receptor (MOR); [22]): 215.9% |
| CC1CN(CC(O)COC2CCCCC2)CC(C)O1 (stereo not drawn) [Compound A0017] | – | – | – | 29.8% | 38.6% | 44% | 161.9% | 96.9% | 246.0% | 65.2% | 187.9% | 100.4% | – |
| CC(=O)c1ccc(OCC(O)CN2CC(C)OC(C)C2)cc1 (stereo not drawn) [Compound A0044] | – | – | – | 32.4% | 36.9% | 39.6% | 176.2% | 89.8% | 209.1% | 134.7% | 182.3% | 75.8% | – |
| O=S(=O)(c1ccc(Br)cc1C(F)(F)F)N1CCC2(CC1)OCCN2S(=O)(=O)c1ccc(Br)cc1C(F)(F)F [Compound C0068] | 53.7% | 58.6% | 62.2% | – | – | – | – | – | – | – | – | – | % DAMGO (0.1 μM) (mu opiate receptor (MOR); [17]): 53.4%; Concentration of FLNA-Binding Compound as Agonist 0.1 μM (mu opiate receptor (MOR); [18]): 107.2%; Concentration of FLNA-Binding Compound as Agonist 1 μM + BFNA (mu opiate receptor (MOR); [19]): 165.9%; % DAMGO + BFNA (mu opiate receptor (MOR); [20]): 307.8%; % DAMGO (1 μM) (mu opiate receptor (MOR); [21]): 83.8%; Concentration of FLNA-Binding Compound as Agonist 1 μM (mu opiate receptor (MOR); [22]): 263.1% |
| COc1c2c(cc3c1C(CC(=O)/C=C/c1ccc(Cl)cc1)[N+](C)(C)CC3)OCO2 (stereo not drawn) [Compound B0019] | 34.3% | 41% | 49% | – | – | – | – | – | – | – | – | – | % DAMGO (0.1 μM) (mu opiate receptor (MOR); [5]): 59.7%; MOR agonist activity, percent [35S]GTPγS binding at the stated compound concentration (mu opiate receptor (MOR); [6]): 101.0%; MOR agonist activity, percent [35S]GTPγS binding at the stated compound concentration (mu opiate receptor (MOR); [7]): 81.4%; % DAMGO + BFNA (mu opiate receptor (MOR); [8]): 123.3%; % DAMGO (1 μM) (mu opiate receptor (MOR); [9]): 96.0%; MOR agonist activity, percent [35S]GTPγS binding at the stated compound concentration (mu opiate receptor (MOR); [10]): 256.5% |
| COc1c2c(cc3c1C(CC(=O)Cc1ccccc1C)[N+](C)(C)CC3)OCO2 (stereo not drawn) [Compound B0031] | 36.2% | 44.2% | 50.5% | – | – | – | – | – | – | – | – | – | % DAMGO (0.1 μM) (mu opiate receptor (MOR); [5]): 109.6%; MOR agonist activity, percent [35S]GTPγS binding at the stated compound concentration (mu opiate receptor (MOR); [6]): 210.8%; MOR agonist activity, percent [35S]GTPγS binding at the stated compound concentration (mu opiate receptor (MOR); [7]): 28.8%; % DAMGO + BFNA (mu opiate receptor (MOR); [8]): 65.6%; % DAMGO (1 μM) (mu opiate receptor (MOR); [9]): 99.6%; MOR agonist activity, percent [35S]GTPγS binding at the stated compound concentration (mu opiate receptor (MOR); [10]): 272.0% |
| O=C1CN(Cc2ccccc2)C2(CCN(CC3CC3)CC2)N1 [Compound C0125M] | 54.2% | 59.7% | 63.3% | – | – | – | – | – | – | – | – | – | % DAMGO (0.1 μM) (mu opiate receptor (MOR); Series C-2, 0.1 μM compound, relative to DAMGO): 89.1%; MOR agonist activity, percent [35S]GTPγS binding at the stated compound concentration (mu opiate receptor (MOR); Series C-2, 0.1 μM compound, [35S]GTPγS binding to Gαo, striatal membranes): 168.6%; MOR agonist activity, percent [35S]GTPγS binding at the stated compound concentration (mu opiate receptor (MOR); Series C-2, 1 μM compound + 1 μM β-FNA): 159.7%; % DAMGO + BFNA (mu opiate receptor (MOR); Series C-2, 1 μM compound + β-FNA, relative to DAMGO + BFNA): 329.3%; % DAMGO (1 μM) (mu opiate receptor (MOR); Series C-2, 1 μM compound, relative to DAMGO): 78.6%; MOR agonist activity, percent [35S]GTPγS binding at the stated compound concentration (mu opiate receptor (MOR); Series C-2, 1 μM compound, [35S]GTPγS binding to Gαo, striatal membranes): 195.2% |
| CC1CN(CC(O)COc2cccc(C(F)(F)F)c2)CC(C)O1 (stereo not drawn) [Compound A0051] | – | – | – | 45.9% | 45.4% | 52.1% | 290.4% | 148.0% | 386.6% | 211.6% | 286.3% | 140.1% | – |
| COc1ccccc1C(=O)CC1c2c(cc3c(c2OC)OCO3)CC[N+]1(C)C (stereo not drawn) [Compound B0025] | 41.7% | 49.4% | 56.6% | – | – | – | – | – | – | – | – | – | % DAMGO (0.1 μM) (mu opiate receptor (MOR); [5]): 96.3%; MOR agonist activity, percent [35S]GTPγS binding at the stated compound concentration (mu opiate receptor (MOR); [6]): 159.6%; MOR agonist activity, percent [35S]GTPγS binding at the stated compound concentration (mu opiate receptor (MOR); [7]): 137.7%; % DAMGO + BFNA (mu opiate receptor (MOR); [8]): 211.8%; % DAMGO (1 μM) (mu opiate receptor (MOR); [9]): 86.8%; MOR agonist activity, percent [35S]GTPγS binding at the stated compound concentration (mu opiate receptor (MOR); [10]): 234.6% |
| CC1CCC(C(C)C)C(OCC(O)CN2CCOc3ccccc32)C1 (stereo not drawn) [Compound A0066] | – | – | – | – | – | – | 151.9% | 88.3% | 195.6% | 59.2% | 171.6% | 89.0% | Percent Binding Inhibition ([1]; FLNA-binding compound 0.01 μM): 36.7%; Percent Binding Inhibition ([1]; FLNA-binding compound 0.1 μM): 45.4%; Percent Binding Inhibition ([1]; FLNA-binding compound 1 μM): 53.7% |
| Cc1cccc(S(=O)(=O)N2CCC3(CC2)OCCN3S(=O)(=O)c2cccc(C)c2)c1 [Compound C0014] | 29.5% | 38.8% | 40% | – | – | – | – | – | – | – | – | – | % DAMGO (0.1 μM) (mu opiate receptor (MOR); [17]): 82.0%; Concentration of FLNA-Binding Compound as Agonist 0.1 μM (mu opiate receptor (MOR); [18]): 144.9%; Concentration of FLNA-Binding Compound as Agonist 1 μM + BFNA (mu opiate receptor (MOR); [19]): 76.3%; % DAMGO + BFNA (mu opiate receptor (MOR); [20]): 116.1%; % DAMGO (1 μM) (mu opiate receptor (MOR); [21]): 59.2%; Concentration of FLNA-Binding Compound as Agonist 1 μM (mu opiate receptor (MOR); [22]): 153.5% |
| CC1CCC(C(C)C)C(OCC(O)CN2CCCc3ccccc32)C1 (stereo not drawn) [Compound A0068] | 51.9% | 54.2% | 58.3% | – | – | – | 73.9% | 36.8% | 110.4% | 98.1% | 182.0% | 35.2% | – |
| OC(COc1cccc(C(F)(F)F)c1)CN1CCc2ccccc2C1 (stereo not drawn) [Compound A0054] | – | – | – | 28.7% | 35.8% | 41.4% | 74.9% | 44.4% | 159.2% | 114.1% | 348.9% | 63.9% | – |
| CC1CN(CC(O)COc2cccc(N(C)C)c2)CC(C)O1 (stereo not drawn) [Compound A0042] | – | – | – | 47.2% | 48.3% | 55.8% | 147.5% | 75.2% | 233.1% | 89.5% | 121.1% | 84.5% | – |
| CC1CCC(C(C)C)C(OCC(O)CN2CCCC2=O)C1 (stereo not drawn) [Compound A0035] | – | – | – | 40.3% | 45.5% | 54.9% | 120.6% | 61.5% | 158.8% | 88.6% | 119.9% | 57.5% | – |
